Article PMC10244169, “Psychedelics promote plasticity by directly binding to BDNF receptor TrkB” (Nature Neuroscience, 2023)

Tests used:
[1] = molecular target: T1, TrkB (Rattus norvegicus, UniProt Q63604); assay: biochemical; type: binding
T1 construct: expressed in transfected cells; host or cells: HEK293T

[2] = test system: spine density of neuronal cultures; assay: Spinogenesis in mature neuronal cultures (WT and Y433F^+/−); type: cell-based, mouse; set-up: 6d: Mean (spinogenesis, spine density) / 6e: Mean (spinogenesis, spine density): unit not given here
Protocol: Spinogenesis experiments were performed similarly to previous studies[12],[13] with modifications. […] In a separate set of experiments to study the effects of extracellular BDNF and 5-HT2A activation, cultures were also pretreated for 10 min with TrkB.FC (200 ng ml^−1) or M100907 (100 nM), respectively. TrkB.FC and M100907 remained in the medium for the rest of the experiment. Twenty-four hours later, coverslips were fixed with 4% PFA, washed with PBS, incubated with blocking buffer (0.1% Triton X-100, 0.05% Tween-20, 10% normal donkey serum, 1% BSA and 0.1% gelatin in PBS) for 1 h at room temperature and then overnight with rabbit anti-MAP2 (Invitrogen, PA5-17646; 1:100) primary antibody at 4 °C. After washing with PBS, coverslips were incubated with CF568-conjugated donkey anti-rabbit (Biotium, 20098; 1:500) for 1 h at room temperature. Another round of PBS washes was followed by incubation with Alexa Fluor 647-conjugated phalloidin (Invitrogen, A22287; 1:40) overnight at 4 °C. Next, coverslips were briefly washed in phosphate buffer (PB) and mounted on slides with ProLong Glass Antifade Mountant (Invitrogen, P36982). We used a Zeiss LSM 880 confocal microscope with an AiryScan GaAsP detector equipped with a PlanApochromat 63×/1.4 NA objective. We used the BP 495–550 + LP 570 AiryScan filter and Zen Black in super-resolution mode for image acquisition. Pinhole size was adapted accordingly, and frame size was set to optimal. Sensors were set to continuous adjustment across the imaging sessions to ensure optimal sensor alignment and signal detection. Raw data were processed into AiryScan images with the autofilter mode on using Zen Blue. Finally, image analysis was performed in ImageJ by experimenters blinded for treatment and genotype. Spines were quantified in 15-µm-long dendrite sections.

[3] = test system: dendritic arbor complexity of neuronal cultures; assay: Dendritogenesis (Sholl analysis) in neuronal cultures (WT and Y433F^+/−); type: cell-based, mouse; details: for Sholl analysis, Mean at distance from soma: fig 6j
Protocol: In a separate set of experiments to study the effects of extracellular BDNF and 5-HT2A activation, cultures were also pretreated for 10 min with TrkB.FC (200 ng ml^−1) or M100907 (100 nM), respectively. Similar to treatment with the psychedelics, TrkB.FC and M100907 pretreatments were administered in cumulative doses and remained in the medium for the rest of the experiment. At DIV7, neurons were pre-incubated for 1 h with […] MgCl2 to prevent excitotoxicity, then neurons were transfected for the heterologous expression of mCherry. To minimize any possible interference of the transfection protocol upon the drug effect, transfection was done in the morning while treatment with psychedelics was always added in the evening. Twenty-four hours after transfection, neurons were fixed with 4% PFA for 20 min at room temperature, washed in PBS-T, blocked for 30 min with 3% BSA in PBS-T and incubated with chicken anti-MAP2 (Abcam, ab5392; 1:5,000, 1 h, room temperature). Then, coverslips were washed in PBS-T and incubated with Alexa Fluor 647-conjugated antibody goat anti-chicken (Invitrogen, A-21449; 1:1,000, 1 h, room temperature). Next, coverslips were washed in PBS-T and MilliQ water, and mounted in Dako fluorescence mounting medium (Agilent, S302380-2). Ten optical sections with a Z-step of 1.3 μm were acquired using a Zeiss LSM 710 confocal microscope with a LCI Plan/Neofluar 25×/0.8 lmm Korr DIC M27 objective. In the mCherry channel, the center of the soma was manually assigned and the number of dendritic intersections at fixed distances (every 5 μm) from the soma was automatically counted using the Sholl analysis plugin of ImageJ.

[4] = ext fig 1f, competition curve, n=5
[5] = TrkB.FC 200 ng ml^−1 or M100907 100 nM

T1 sequence (Q63604 32-821): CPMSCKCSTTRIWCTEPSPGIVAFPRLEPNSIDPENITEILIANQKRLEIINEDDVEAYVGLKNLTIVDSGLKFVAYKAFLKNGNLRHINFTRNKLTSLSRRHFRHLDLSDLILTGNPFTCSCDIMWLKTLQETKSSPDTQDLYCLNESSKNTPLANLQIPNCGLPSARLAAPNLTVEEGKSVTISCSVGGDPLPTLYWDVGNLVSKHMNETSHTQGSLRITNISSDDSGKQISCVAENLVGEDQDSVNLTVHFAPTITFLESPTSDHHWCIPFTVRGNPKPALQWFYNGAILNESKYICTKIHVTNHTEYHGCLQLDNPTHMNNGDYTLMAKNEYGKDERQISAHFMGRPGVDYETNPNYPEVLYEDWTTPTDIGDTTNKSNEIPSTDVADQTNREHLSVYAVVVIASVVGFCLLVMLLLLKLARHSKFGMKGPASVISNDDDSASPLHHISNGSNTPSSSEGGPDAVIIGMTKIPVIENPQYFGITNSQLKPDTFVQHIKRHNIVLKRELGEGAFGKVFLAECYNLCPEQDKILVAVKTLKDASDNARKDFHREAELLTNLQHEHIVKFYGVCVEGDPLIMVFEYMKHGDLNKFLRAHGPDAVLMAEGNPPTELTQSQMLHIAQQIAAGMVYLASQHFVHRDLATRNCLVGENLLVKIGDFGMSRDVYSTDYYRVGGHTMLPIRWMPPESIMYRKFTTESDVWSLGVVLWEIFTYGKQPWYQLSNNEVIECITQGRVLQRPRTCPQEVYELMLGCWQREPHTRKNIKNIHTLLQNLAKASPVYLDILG

COc1cccc([C@H](O)C2CCN(CCc3ccc(F)cc3)CC2)c1OC [M100907]
displacement of ^3H-LSD from TrkB ([1]; 1 nM to 10 µM of drug): fail to displace LSD binding to TrkB
Fit status, specific binding with Hill slope ([1]; ext fig 1f): Ambiguous
Bmax (specific binding with Hill slope, best-fit) [1, 4]: 94.18
h (Hill slope, best-fit) [1, 4]: ~ 1.901
effect of pretreatment on spinogenic effect of LSD [2, 5]: not M100907 prevented the spinogenic effect of LSD
6e: Mean Diff. (Vehicle:Vehicle vs. treatment), Bonferroni's multiple comparisons test ([2]; substance alone (with vehicle)): -2.8
6e: Mean (spinogenesis, spine density) ([2]; substance alone (with vehicle), Vehicle:Vehicle mean 7.05): 9.85
effect of pretreatment on LSD effects on dendritogenesis [3, 5]: not M100907 prevented LSD effects on dendritogenesis
dendritic arbor complexity, Mean Diff. (Vehicle:vehicle vs. group) ([3]; fig 6i, Bonferroni's multiple comparisons test): -9.087
dendritic arbor complexity, group mean (Mean 2) ([3]; fig 6i, treatment:pretreatment groups, Vehicle:vehicle mean 69.72): 78.81
Sholl analysis, Mean at distance from soma ([3]; distance from soma 10 µm): 6.619
Sholl analysis, Mean at distance from soma ([3]; distance from soma 15 µm): 6.476
Sholl analysis, Mean at distance from soma ([3]; distance from soma 20 µm): 6.048
Sholl analysis, Mean at distance from soma ([3]; distance from soma 25 µm): 6.333
Sholl analysis, Mean at distance from soma ([3]; distance from soma 30 µm): 5.286
Sholl analysis, Mean at distance from soma ([3]; distance from soma 35 µm): 4.524
Sholl analysis, Mean at distance from soma ([3]; distance from soma 40 µm): 4.619
Sholl analysis, Mean at distance from soma ([3]; distance from soma 45 µm): 3.714
Sholl analysis, Mean at distance from soma ([3]; distance from soma 50 µm): 3.667
Sholl analysis, Mean at distance from soma ([3]; distance from soma 55 µm): 3.571
Sholl analysis, Mean at distance from soma ([3]; distance from soma 60 µm): 3.381
Sholl analysis, Mean at distance from soma ([3]; distance from soma 65 µm): 3.238
Sholl analysis, Mean at distance from soma ([3]; distance from soma 70 µm): 2.905
Sholl analysis, Mean at distance from soma ([3]; distance from soma 75 µm): 2.857
Sholl analysis, Mean at distance from soma ([3]; distance from soma 80 µm): 3.429
Sholl analysis, Mean at distance from soma ([3]; distance from soma 85 µm): 3.429
Sholl analysis, Mean at distance from soma ([3]; distance from soma 90 µm): 3.381
Sholl analysis, Mean at distance from soma ([3]; distance from soma 95 µm): 2.619
Sholl analysis, Mean at distance from soma ([3]; distance from soma 100 µm): 2.714
